Broadly, the EC50 is the concentration giving half of the maximal effect.

This test has as its target T1, ELIC (Dickeya chrysanthemi, UniProt P0C7B7, INS163G).
T1 construct: expressed in transfected cells; host or cells: Xenopus laevis oocytes injected with cRNA
Briefly: cell-based. Type of test: cell-based, Erwinia chrysanthemi. On the procedure: Xenopus laevis oocyte-positive females were purchased from NASCO (Fort Atkinson, Wisconsin, USA) and maintained according to standard methods.
The ELIC sequence (Genbank accession number POC7B7) was purchased from Genscript as a synthetic gene with optimized codon usage for expression in Escherichia coli. […] Stage V and VI oocytes were injected with 20 ng cRNA, and currents recorded 1–3 days post-injection.
Take `C[C@H](N)C(=O)O` [Alanine]: the 50% effective concentration (EC50) is more than 10 mM.

Turning to `N=C(N)NCCC[C@H](N)C(=O)O` [Arginine], the EC50 is more than 10 mM.

As for `NC(=O)C[C@H](N)C(=O)O` [Asparagine], the 50% effective concentration (EC50) was more than 10 mM.

As to `N[C@@H](CC(=O)O)C(=O)O` [Aspartate], the EC50 is more than 10 mM.

`N[C@@H](CS)C(=O)O` [Cysteine] yielded an EC50 of more than 10 mM.

Turning to `NC(=O)CC[C@H](N)C(=O)O` [Glutamine], the concentration for a half-maximal effect (EC50) was more than 10 mM.

With `N[C@@H](Cc1c[nH]cn1)C(=O)O` [Histidine], the half-maximal effective concentration (EC50) was more than 10 mM.

`CC[C@H](C)[C@H](N)C(=O)O` [Isoleucine] returned an EC50 of more than 10 mM.

In turn, `N[C@@H](CCC(=O)O)C(=O)O` [L-glutamate] registered a concentration for a half-maximal effect (EC50) of more than 10 mM.

`CC(C)C[C@H](N)C(=O)O` [Leucine] yielded a concentration for a half-maximal effect (EC50) of more than 10 mM.

In the case of `NCCCC[C@H](N)C(=O)O` [Lysine], the concentration giving a half-maximal response (EC50) was more than 10 mM.

In the case of `CSCC[C@H](N)C(=O)O` [Methionine], the EC50 was more than 10 mM.

Regarding `N[C@@H](Cc1ccccc1)C(=O)O` [Phenylalanine], the EC50 was more than 10 mM.

Consider `O=C(O)[C@@H]1CCCN1` [Proline], for which the EC50 is more than 10 mM.

Regarding `N[C@@H](CO)C(=O)O` [Serine], the EC50 is more than 10 mM.

`C[C@@H](O)[C@H](N)C(=O)O` [Threonine]: the EC50 is more than 10 mM.

In the case of `N[C@@H](Cc1c[nH]c2ccccc12)C(=O)O` [Tryptophan], the EC50 is more than 10 mM.

In turn, `N[C@@H](Cc1ccc(O)cc1)C(=O)O` [Tyrosine] yielded an EC50 of more than 10 mM.

`CC(C)[C@H](N)C(=O)O` [Valine] showed a concentration giving a half-maximal response (EC50) of more than 10 mM.

On to `NCc1cc(=O)[nH]o1` [muscimol], for which the EC50 is more than 10 mM.

Molecule `O=C(O)[C@@H]1CCC(O)=N1` [pyroglutamate] had a half-maximal effective concentration (EC50) of more than 10 mM.

As for `O=C(O)CCC(=O)O` [succinic acid], the EC50 was more than 10 mM.

With `NCCC(=O)O` [β-alanine], the EC50 is more than 10 mM.

For `O=C1CCCO1` [γ-butyrolactone], the EC50 is more than 10 mM.

Values taken from PMC3430861, “The pharmacological profile of ELIC, a prokaryotic GABA-gated receptor” (Neuropharmacology, 2012).
